Experimental data published in PubChem BioAssay AID248 (DTP/NCI, 2004).
“And” between values parts separate entries of the source, which are not always exact repeats. Equal entries are not always repeated. Toxic doses and inconclusive results are not listed. No stated cut-off is given here; in the data, active means T/C of 150% or more; inactive means T/C below 125%.

System: L1210 leukemia ip in BDF1 mice, survival T/C
Test: NCI In Vivo Anticancer Drug Screen. Data for tumor model L1210 Leukemia (intraperitoneal) in B6D2F1 (BDF1) mice
Conditions: endpoint: mean survival time, higher = longer survival
Procedure, shortened: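 Mice bearing the transplanted tumor received compound or vehicle. Survival of the treated group was divided by that of the vehicle-treated control group to give the ratio.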

[1] = dose: 100.0 mg/kg/injection, schedule: Q01DX009 (ip), vehicle: Klucel (hydroxypropylcellulose) (HPC)
[2] = dose: 200.0 mg/kg/injection, schedule: Q01DX009 (ip), vehicle: Klucel (hydroxypropylcellulose) (HPC)
[3] = dose: 400.0 mg/kg/injection, schedule: Q01DX009 (ip), vehicle: Klucel (hydroxypropylcellulose) (HPC)
[4] = dose: 100.0 mg/kg/injection, schedule: Q04DX002 (ip), vehicle: Klucel (hydroxypropylcellulose) (HPC)
[5] = dose: 200.0 mg/kg/injection, schedule: Q04DX002 (ip), vehicle: Klucel (hydroxypropylcellulose) (HPC)
[6] = dose: 400.0 mg/kg/injection, schedule: Q04DX002 (ip), vehicle: Klucel (hydroxypropylcellulose) (HPC)
[7] = dose: 100.0 mg/kg/injection, schedule: Q01DX001 (ip), vehicle: Klucel (hydroxypropylcellulose) (HPC)
[8] = dose: 200.0 mg/kg/injection, schedule: Q01DX001 (ip), vehicle: Klucel (hydroxypropylcellulose) (HPC)
[9] = dose: 400.0 mg/kg/injection, schedule: Q01DX001 (ip), vehicle: Klucel (hydroxypropylcellulose) (HPC)
[10] = dose: 50.0 mg/kg/injection, schedule: Q01DX009 (ip), vehicle: Klucel (hydroxypropylcellulose) (HPC)
[11] = dose: 100.0 mg/kg/injection, schedule: Q04DX003 (ip), vehicle: Klucel (hydroxypropylcellulose) (HPC)
[12] = dose: 200.0 mg/kg/injection, schedule: Q04DX003 (ip), vehicle: Klucel (hydroxypropylcellulose) (HPC)
[13] = dose: 400.0 mg/kg/injection, schedule: Q04DX003 (ip), vehicle: Klucel (hydroxypropylcellulose) (HPC)
[14] = dose: 100.0 mg/kg/injection, schedule: Q04DX003 (ip), vehicle: saline with Tween-80
[15] = dose: 200.0 mg/kg/injection, schedule: Q04DX003 (ip), vehicle: saline with Tween-80
[16] = dose: 50.0 mg/kg/injection, schedule: Q04DX002 (ip), vehicle: Klucel (hydroxypropylcellulose) (HPC)
[17] = dose: 100.0 mg/kg/injection, schedule: Q01DX001 (ip), vehicle: saline
[18] = dose: 200.0 mg/kg/injection, schedule: Q01DX001 (ip), vehicle: saline
[19] = dose: 400.0 mg/kg/injection, schedule: Q01DX001 (ip), vehicle: saline
[20] = dose: 100.0 mg/kg/injection, schedule: Q01DX009 (ip), vehicle: saline with Tween-80
[21] = dose: 200.0 mg/kg/injection, schedule: Q01DX009 (ip), vehicle: saline with Tween-80
[22] = dose: 400.0 mg/kg/injection, schedule: Q01DX009 (ip), vehicle: saline with Tween-80
[23] = dose: 400.0 mg/kg/injection, schedule: Q04DX003 (ip), vehicle: saline with Tween-80

Measured: T/C

CCCc1c(OCC)c(OC)c2c3c(c(-c4c(C)cc5c(CCC)c(OCC)c(OC)c6c5c4OC6OC)c(C)cc13)OC2OC (stereo not given)
inactive: [1] 94 % of control | [2] 98 % of control | [3] 98 % of control

CC(NC(=O)c1ccccc1)C(=O)Nc1ccccc1 (stereo not given)
inactive: [4] 101 % of control | [5] 114 % of control | [6] 108 % of control

Nc1c(Cl)ncnc1NC1CC(CO)CC1O (stereo not given)
inactive: [7] 96 % of control | [8] 93 % of control | [9] 96 % of control

Cc1cc(S(=O)(=O)NO)c(N)cc1Cl
inactive: [10] 108 % of control | [1] 99 % of control | [2] 99 % of control

COC(=O)c1nc(Cl)nc(N)c1Cl
inactive: [11] 94 % of control | [12] 94 % of control | [13] 97 % of control

COC(=O)c1ccc(Cn2ccc(=O)[nH]c2=O)cc1
inactive: dose: 50.0 mg/kg/injection, schedule: Q04DX003 (ip), vehicle: saline with Tween-80 92 % of control | [14] 95 % of control | [15] 89 % of control

O=c1[nH]cnc2c1nc([Se])n2C1OC(CO)C(O)C1O (stereo not given)
inactive: dose: 100.0 mg/kg/injection, schedule: Q01DX005 (ip), vehicle: saline 102 % of control | dose: 200.0 mg/kg/injection, schedule: Q01DX005 (ip), vehicle: saline 107 % of control

CCCCCCCCCCP(=O)(CCCC)CCCC
inactive: dose: 1.56 mg/kg/injection, schedule: Q01DX009 (ip), vehicle: Klucel (hydroxypropylcellulose) (HPC) 92 % of control | dose: 3.12 mg/kg/injection, schedule: Q01DX009 (ip), vehicle: Klucel (hydroxypropylcellulose) (HPC) 95 % of control | dose: 6.25 mg/kg/injection, schedule: Q01DX009 (ip), vehicle: Klucel (hydroxypropylcellulose) (HPC) 97 % of control | dose: 12.5 mg/kg/injection, schedule: Q01DX009 (ip), vehicle: Klucel (hydroxypropylcellulose) (HPC) 95 % of control | [1] 100 % of control

O=C1NC2Cc3ccccc3CC12 (stereo not given)
inactive: [4] 102 % of control | [5] 100 % of control | [6] 86 % of control

O=C(O)CC1CCCCC1CC(=O)O (stereo not given)
inactive: dose: 25.0 mg/kg/injection, schedule: Q04DX002 (ip), vehicle: Klucel (hydroxypropylcellulose) (HPC) 101 % of control | [16] 98 % of control | [4] 92 % of control | [5] 95 % of control and 97 % of control | [6] 107 % of control

COc1cc2cc3c4cc(OC)c(OC)cc4cc[n+]3cc2cc1OC
inactive: dose: 10.0 mg/kg/injection, schedule: Q01DX009 (ip), vehicle: saline 92 % of control | dose: 20.0 mg/kg/injection, schedule: Q01DX009 (ip), vehicle: saline 116 % of control | dose: 40.0 mg/kg/injection, schedule: Q01DX009 (ip), vehicle: saline 118 % of control | dose: 80.0 mg/kg/injection, schedule: Q01DX009 (ip), vehicle: saline 110 % of control | dose: 160.0 mg/kg/injection, schedule: Q01DX009 (ip), vehicle: saline 113 % of control | dose: 320.0 mg/kg/injection, schedule: Q01DX009 (ip), vehicle: saline 93 % of control

N/C(=N\O)c1c(Br)n(C2OC(CO)C(O)C2O)c2ncnc(N)c12 (stereo not given)
inactive: [17] 98 % of control | [18] 97 % of control | [19] 106 % of control

CCc1c(C(OC)OC)[nH]c(=S)[nH]c1=O
inactive: [20] 94 % of control | [14] 100 % of control | [21] 100 % of control | [15] 100 % of control | [22] 94 % of control | [23] 105 % of control

O=S(=O)(NCCNS(=O)(=O)c1ccccc1)c1ccccc1
inactive: [20] 96 % of control | [21] 94 % of control | [22] 95 % of control

O=c1cc(-c2ccccc2Br)[nH]c2ccccc12
inactive: [17] 96 % of control | [18] 100 % of control | [19] 96 % of control

COc1cccc2c1CCC1C2CCC2(O)CC(=O)CCC12C (stereo not given)
inactive: dose: 100.0 mg/kg/injection, schedule: Q04DX003 (sc), vehicle: steriod suspending solution 115 % of control | dose: 200.0 mg/kg/injection, schedule: Q04DX003 (sc), vehicle: steriod suspending solution 113 % of control | dose: 400.0 mg/kg/injection, schedule: Q04DX003 (sc), vehicle: steriod suspending solution 113 % of control

OC(CF)CCl (stereo not given)
inactive: dose: 6.25 mg/kg/injection, schedule: Q01DX009 (ip), vehicle: saline 89 % of control | dose: 12.5 mg/kg/injection, schedule: Q01DX009 (ip), vehicle: saline 96 % of control | dose: 25.0 mg/kg/injection, schedule: Q01DX009 (ip), vehicle: saline 103 % of control

CSC(NC(=O)c1ccc([N+](=O)[O-])cc1)C(N)=O (stereo not given)
inactive: [16] 102 % of control | [4] 106 % of control | [5] 109 % of control and 113 % of control | [6] 109 % of control

CC1c2[nH]c3ccccc3c2CC1C(=O)O (stereo not given)
inactive: dose: 100.0 mg/kg/injection, schedule: Q04DX002 (ip), vehicle: saline with Tween-80 97 % of control | dose: 200.0 mg/kg/injection, schedule: Q04DX002 (ip), vehicle: saline with Tween-80 91 % of control | dose: 400.0 mg/kg/injection, schedule: Q04DX002 (ip), vehicle: saline with Tween-80 100 % of control

CCCCNC(=O)Nc1ccc(CC)cc1
inactive: [1] 98 % of control | [11] 97 % of control | [2] 102 % of control | [12] 102 % of control | [3] 96 % of control | [13] 100 % of control

COc1ccc2c3c(ccc2c1)C(=O)/C(=C\O)CC3
inactive: dose: 25.0 mg/kg/injection, schedule: Q01DX009 (ip), vehicle: Klucel (hydroxypropylcellulose) (HPC) 92 % of control | dose: 25.0 mg/kg/injection, schedule: Q04DX003 (ip), vehicle: Klucel (hydroxypropylcellulose) (HPC) 100 % of control | [10] 108 % of control | dose: 50.0 mg/kg/injection, schedule: Q04DX003 (ip), vehicle: Klucel (hydroxypropylcellulose) (HPC) 101 % of control | [1] 88 % of control | [11] 100 % of control and 103 % of control | [12] 103 % of control

NC(CCl)=NC1CCCCC1
inactive: dose: 25.0 mg/kg/injection, schedule: Q04DX002 (ip), vehicle: saline 106 % of control | dose: 50.0 mg/kg/injection, schedule: Q04DX002 (ip), vehicle: saline 100 % of control | dose: 100.0 mg/kg/injection, schedule: Q04DX002 (ip), vehicle: saline 110 % of control and 120 % of control

COC(=O)CCC(NC(=O)c1cccc(N(C)C=O)c1)C(=O)OC (stereo not given)
inactive: dose: 50.0 mg/kg/injection, schedule: Q01DX009 (ip), vehicle: saline with Tween-80 97 % of control | [20] 95 % of control | [21] 105 % of control

CCOP(OCC)N1CCCCCC1=O
inactive: [14] 100 % of control | [15] 95 % of control | [23] 89 % of control

CCCCCCC1CCCc2ccc(CCCC)cc21 (stereo not given)
inactive: dose: 50.0 mg/kg/injection, schedule: Q01DX001 (ip), vehicle: saline 110 % of control | [17] 106 % of control | [18] 101 % of control | [19] 101 % of control

Nc1cc2c3ccccc3c(F)cc2c2ccccc12
inactive: [1] 106 % of control | [11] 96 % of control | [2] 104 % of control | [12] 93 % of control | [3] 101 % of control | [13] 98 % of control

Cc1cccnc1OCC(=O)O
inactive: [4] 101 % of control | [5] 104 % of control | [6] 93 % of control

CCc1ccc(N=Nc2c(F)c(F)c(N(C)C)c(F)c2F)cc1
inactive: dose: 100.0 mg/kg/injection, schedule: Q01DX001 (ip), vehicle: carboxymethylcellulose (CMC) 102 % of control | dose: 200.0 mg/kg/injection, schedule: Q01DX001 (ip), vehicle: carboxymethylcellulose (CMC) 100 % of control | dose: 400.0 mg/kg/injection, schedule: Q01DX001 (ip), vehicle: carboxymethylcellulose (CMC) 100 % of control

Nc1ncnc(N)c1NC(=O)c1cc(Cl)cc(Cl)c1
inactive: [11] 91 % of control | [13] 86 % of control

Cc1ncc(CN2CSC(CCO)C2C)c(N)n1 (stereo not given)
inactive: [7] 95 % of control | [8] 93 % of control | [9] 93 % of control
